{"source": "paper PMC9841576", "about": "“Characterisation of C101248: A novel selective THIK-1 channel inhibitor for the modulation of microglial NLRP3-inflammasome” (Neuropharmacology, 2023)", "system": "other constitutively active resting conductance in microglia", "assay": "Whole-cell patch clamp of microglia in hippocampal slices: other resting and voltage-dependent currents", "format": "cell-based, mouse", "conditions": "5 μM", "method": "Acute hippocampal slices (300 μm thick), from 3 to 4 months old mice, were prepared using a specially adapted protective slicing solution ([Ting et al., 2014]) containing (mM) 93 choline chloride, 20 HEPES, 30 NaHCO3, 2.5 KCl, 0.5 CaCl2, 10 MgCl2, 1.2 NaH2PO4, 25 glucose, 1 kynurenic acid, 5 Na-ascorbate, 3 Na-pyruvate, pH adjusted to 7.4, bubbled with 95% O2/5% CO2 and cooled at <4 °C, and a recovery solution containing (mM) 92 NaCl, 20 HEPES, 30 NaHCO3, 2.5 KCl, 2 CaCl2, 1 MgCl2, 1.2 NaH2PO4, 25 glucose, 1 kynurenic acid, 5 Na-ascorbate, 3 Na-pyruvate, pH set to 7.4 and bubbled with 95% O2/5% CO2\nImmediately after slicing, slices were placed for 13 min in warm (33–35 °C) slicing solution and then transferred to recovery solution at room temperature until experimental usage. […] Slices were perfused with bicarbonate-buffered solution, at 34–36 °C for all experiments, containing (mM) 124 NaCl, 2.5 KCl, 26 NaHCO3, 1 NaH2PO4, 2 CaCl2, 1 MgCl2, 10 glucose, bubbled with 95% O2/5% CO2. Microglia were whole-cell clamped with electrodes containing K-gluconate based solution, comprising (mM) 130 K-glu, 4 NaCl, 1 CaCl2, 10 HEPES, 10 EGTA, 4 MgATP, 0.5 Na2GTP, pH set to 7.2 with KOH and osmolarity adjusted to […]. […] Currents were filtered at 1 kHz, digitized (10 kHz) and analysed off-line using pClamp10 software."}
{"smiles": "Nc1nonc1-c1nc2ccccc2n1Cc1ccncc1", "note": "[C101248]", "values": [{"measurement": "effect on baseline membrane current in THIK-1 KO mice", "setting": "microglia voltage-clamped at 0 mV, THIK-1 KO mice", "result": "no further changes"}, {"measurement": "effect on inward or outward currents induced by depolarising voltage steps", "setting": "voltage steps −150 mV to +60 mV", "result": "no effect"}]}
